From US20110104300A1, “Methods for Screening Chemical, Biological, and Physical Agents for Disinfecting Infectious Norovirus” (KIM LABORATORIES, INC., priority 2009, published 2011)

Assays:
[1] = system: Norovirus; experiment: Suspension testing: Norovirus-positive stool in suspension, test agent, PBST neutralization, IMS bead capture, qRT-PCR; parameters: species or system human; details: for antiviral activity against Norovirus (in words): nanosilver at any concentration tested, alcohol up to 70%; for Log Reduction: Suspension
[2] = system: Human Norovirus; experiment: Hard surface testing: Norovirus-positive stool dried on surface, test agent, PBST neutralization, IMS bead capture, qRT-PCR
Description: For this method, a Norovirus-positive human stool sample was allowed to dry on the surface of a material. A sterilized surface material (e.g., stainless steel, ceramic, porcelain, or fabric, etc.), in this case a round stainless steel plate, was placed into the center of a sterile deep Petri dish. 20 μl of Norovirus-positive human stool sample was added to the center of the stainless steel plate. The stool sample was dried onto the surface of the material for 30 minutes at room temperature.
100 μl of a test agent (e.g., a chemical disinfectant) was added on top of the dried stool sample. 100 μl of a neutral buffer, phosphate buffered saline-TWEEN® 20 (polysorbate) (PBST), was used as a negative control (in place of the test agent). 100 μl of 20% household bleach, (10500 ppm sodium hypochlorite, prepared fresh) was used as a positive control (in place of the test agent). The sample and the test agent, neutral buffer, and either 20% household bleach or 10500 ppm sodium hypochlorite were incubated at room temperature for as short as one minute to as long as 60 minutes.
40 ml of PBST was added over the surface to fully submerge the surface material and to dislodge the entire dried stool sample. 40 ml PBST acts as a neutralizer for the test compound by dilution. If necessary, the dried stool sample was scraped with the end of a sterile pipette tip. The mixture was shaken for 15 minutes (at ˜150 rpm) in an orbital shaker at room temperature.
The supernatant is transferred to a 50 ml screw cap centrifuge tube (or similar container). 10-100 μl of Norovirus specific antibody conjugated IMS beads were added, and the resulting mixture was incubated for 1-2 hours with end over rotation (5-10 RPM). The Norovirus specific antibody was monoclonal antibody P2B2 (Kim Laboratories, Inc., Rantoul, Ill.). A tube was placed in a magnetic stand for 15 minutes to capture the IMS beads. The supernatant was removed, with care being taken not to dislodge the IMS beads. […]

CCO [alcohol]
antiviral activity against Norovirus (in words) ([1]; Suspension testing): ineffective

CCO [Ethanol solution, Ethanol]
Log Reduction ([1]; 70%): 1.3 log

OCl [Sodium Hypochlorite]
Norovirus disinfection (in words) ([1]; Suspension testing, bleach dilution more than 2-3 weeks old, data not shown): not effective
antiviral activity against Norovirus (in words) ([1]; Suspension testing): showed antiviral activity
Log Reduction ([1]; 20% of household bleach by Clorox brand): >5 log
Log Reduction ([2]; Hard surface (porcelain tile), 20% of household bleach by Clorox brand): >5 log
Norovirus disinfection (in words) ([2]; Hard surface testing, bleach dilution more than 2-3 weeks old): not effective
antiviral activity against Human Norovirus (in words) ([2]; Hard surface testing, nanosilver at any concentration tested): showed antiviral activity

Povidone Iodine
Log Reduction ([1]; 5%): 1.1 log

OO [hydrogen peroxide]
antiviral activity against Norovirus (in words) ([1]; Suspension testing): ineffective

O=S(=O)([O-])O[O-].[K+].[K+] [potassium peroxymonosulfate]
antiviral activity against Norovirus (in words) ([1]; Suspension testing): ineffective

CC(O)C(=O)O (centres unmarked) [lactic acid]
antiviral activity against Norovirus (in words) ([1]; Suspension testing): ineffective

O=C(O)CC(O)(CC(=O)O)C(=O)O [Citric Acid Solution, Citric Acid]
antiviral activity against Norovirus (in words) ([1]; Suspension testing): ineffective
Log Reduction ([1]; 0.6%): 1.26 log
